Laboratory results from publication PMC12090182, “Repurposing of the RIPK1-Selective Benzo[1,4]oxazepin-4-one Scaffold for the Development of a Type III LIMK1/2 Inhibitor” (ACS Chemical Biology, 2025).

Tests used:
Assay in all cases: scanMAX KINOMEscan (Eurofins)
Format in all cases: binding
GRK3 = GRK3 (Homo sapiens, UniProt P35626); details: 1000 nM, read-out: Percent Control
From the text: (§1) Supplement cb5c00097_si_002.xlsx, sheet "Table S6 (Eurofins Selectivity)" | column: Percent Control

EGFR = EGFR (Homo sapiens, UniProt P00533); details: read-out: Percent Control
From the text: as §1

DRAK1 = DRAK1 (Homo sapiens, UniProt Q9UEE5); details: 1000 nM, read-out: Percent Control
From the text: as §1

SIK2 = SIK2 (Homo sapiens, UniProt Q9H0K1); details: compound concentration 100 nM; Entrez SIK2; read-out: Percent Control
From the text: as §1

CSNK1G3 = CSNK1G3 (Homo sapiens, UniProt Q9Y6M4); details: read-out: Percent Control
From the text: as §1

CAMK1 = CAMK1 (Homo sapiens, UniProt Q14012); details: read-out: Percent Control
From the text: as §1

TNK1 = TNK1 (Homo sapiens, UniProt Q13470); details: 1000 nM, read-out: Percent Control
From the text: as §1

GRK4 = GRK4 (Homo sapiens, UniProt P32298); details: 1000 nM, read-out: Percent Control
From the text: as §1

RIOK1 = RIOK1 (Homo sapiens, UniProt Q9BRS2); details: 1000 nM, read-out: Percent Control
From the text: as §1

CDK8 = CDK8 (Homo sapiens, UniProt P49336); details: 1000 nM, read-out: Percent Control
From the text: as §1

PRKCD = PRKCD (Homo sapiens, UniProt Q05655); details: compound concentration 100 nM; Entrez PRKCD; read-out: Percent Control
From the text: as §1

WNK1 = WNK1 (Homo sapiens, UniProt Q9H4A3); details: compound concentration 100 nM; Entrez WNK1; read-out: Percent Control
From the text: as §1

TGFBR2 = TGFBR2 (Homo sapiens, UniProt P37173); details: compound concentration 100 nM; Entrez TGFBR2; read-out: Percent Control
From the text: as §1

TIE1 = TIE1 (Homo sapiens, UniProt P35590); details: 1000 nM, read-out: Percent Control
From the text: as §1

ERK8 = ERK8 (Homo sapiens, UniProt Q8TD08); details: read-out: Percent Control
From the text: as §1

AAK1 = AAK1 (Homo sapiens, UniProt Q2M2I8); details: 1000 nM, read-out: Percent Control
From the text: as §1

ACVR1 = ACVR1 (Homo sapiens, UniProt Q04771); details: 1000 nM, read-out: Percent Control
From the text: as §1

RIOK3 = RIOK3 (Homo sapiens, UniProt O14730); details: 1000 nM, read-out: Percent Control
From the text: as §1

ITK = ITK (Homo sapiens, UniProt Q08881); details: 1000 nM, read-out: Percent Control
From the text: as §1

TYRO3 = TYRO3 (Homo sapiens, UniProt Q06418); details: 1000 nM, read-out: Percent Control
From the text: as §1

ULK3 = ULK3 (Homo sapiens, UniProt Q6PHR2); details: 1000 nM, read-out: Percent Control
From the text: as §1

PIM3 = PIM3 (Homo sapiens, UniProt Q86V86); details: 1000 nM, read-out: Percent Control
From the text: as §1

FGFR4 = FGFR4 (Homo sapiens, UniProt P22455); details: 1000 nM, read-out: Percent Control
From the text: as §1

WEE2 = WEE2 (Homo sapiens, UniProt P0C1S8); details: 1000 nM, read-out: Percent Control
From the text: as §1

TNIK = TNIK (Homo sapiens, UniProt Q9UKE5); details: 1000 nM, read-out: Percent Control
From the text: as §1

JNK3 = JNK3 (Homo sapiens, UniProt P53779); details: 1000 nM, read-out: Percent Control
From the text: as §1

MKK7 = MKK7 (Homo sapiens, UniProt O14733); details: read-out: Percent Control
From the text: as §1

MUSK = MUSK (Homo sapiens, UniProt O15146); details: 1000 nM, read-out: Percent Control
From the text: as §1

[1] = biological target: RPS6KA4(Kin.Dom.2-C-terminal) (Homo sapiens, UniProt O75676); details: compound concentration 100 nM; Entrez RPS6KA4; read-out: Percent Control
From the text: as §1

AURKC = AURKC (Homo sapiens, UniProt Q9UQB9); details: 1000 nM, read-out: Percent Control
From the text: as §1

BUB1 = BUB1 (Homo sapiens, UniProt O43683); details: 1000 nM, read-out: Percent Control
From the text: as §1

MINK = MINK (Homo sapiens, UniProt Q8N4C8); details: 1000 nM, read-out: Percent Control
From the text: as §1

NEK9 = NEK9 (Homo sapiens, UniProt Q8TD19); details: 1000 nM, read-out: Percent Control
From the text: as §1

MAPKAPK2 = MAPKAPK2 (Homo sapiens, UniProt P49137); details: 1000 nM, read-out: Percent Control
From the text: as §1

GSK3A = GSK3A (Homo sapiens, UniProt P49840); details: 1000 nM, read-out: Percent Control
From the text: as §1

EPHB2 = EPHB2 (Homo sapiens, UniProt P29323); details: 1000 nM, read-out: Percent Control
From the text: as §1

NEK5 = NEK5 (Homo sapiens, UniProt Q6P3R8); details: 1000 nM, read-out: Percent Control
From the text: as §1

CAMK2D = CAMK2D (Homo sapiens, UniProt Q13557); details: 1000 nM, read-out: Percent Control
From the text: as §1

Sequence of CAMK1 (Q14012 whole entry): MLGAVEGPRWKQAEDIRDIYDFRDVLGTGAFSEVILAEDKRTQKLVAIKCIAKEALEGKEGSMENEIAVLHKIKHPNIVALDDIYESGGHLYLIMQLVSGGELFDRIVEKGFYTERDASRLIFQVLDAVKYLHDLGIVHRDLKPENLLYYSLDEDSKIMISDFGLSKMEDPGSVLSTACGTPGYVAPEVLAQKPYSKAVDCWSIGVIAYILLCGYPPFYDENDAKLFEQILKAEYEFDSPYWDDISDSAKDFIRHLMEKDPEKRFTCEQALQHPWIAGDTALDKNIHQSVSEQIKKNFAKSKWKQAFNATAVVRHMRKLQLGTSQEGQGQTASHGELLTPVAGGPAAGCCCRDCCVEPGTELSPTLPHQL
Sequence of MKK7 (O14733 whole entry): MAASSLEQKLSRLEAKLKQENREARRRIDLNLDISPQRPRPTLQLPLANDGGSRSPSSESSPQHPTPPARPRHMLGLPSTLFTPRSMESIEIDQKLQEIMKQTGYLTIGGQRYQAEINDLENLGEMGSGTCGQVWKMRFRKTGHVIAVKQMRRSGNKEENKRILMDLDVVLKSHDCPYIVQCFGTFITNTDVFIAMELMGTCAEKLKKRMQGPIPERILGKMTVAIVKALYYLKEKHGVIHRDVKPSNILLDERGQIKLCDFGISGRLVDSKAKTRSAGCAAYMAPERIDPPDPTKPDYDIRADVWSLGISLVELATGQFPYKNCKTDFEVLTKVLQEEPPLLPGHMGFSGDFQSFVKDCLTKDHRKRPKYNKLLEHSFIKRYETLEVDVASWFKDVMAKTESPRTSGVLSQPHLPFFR
Sequence of CSNK1G3 (Q9Y6M4 whole entry): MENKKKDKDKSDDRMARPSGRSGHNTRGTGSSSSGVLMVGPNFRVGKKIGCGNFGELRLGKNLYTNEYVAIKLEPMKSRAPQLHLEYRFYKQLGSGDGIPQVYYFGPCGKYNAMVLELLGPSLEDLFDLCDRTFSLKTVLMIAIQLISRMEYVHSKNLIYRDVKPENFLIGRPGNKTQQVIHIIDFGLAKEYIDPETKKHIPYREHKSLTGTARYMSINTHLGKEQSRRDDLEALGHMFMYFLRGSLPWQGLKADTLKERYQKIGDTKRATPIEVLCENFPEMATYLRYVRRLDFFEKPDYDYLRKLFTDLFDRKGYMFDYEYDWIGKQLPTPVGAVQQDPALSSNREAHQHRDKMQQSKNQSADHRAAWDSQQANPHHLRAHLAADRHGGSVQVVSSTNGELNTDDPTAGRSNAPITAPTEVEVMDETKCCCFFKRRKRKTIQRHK
Sequence of ERK8 (Q8TD08 whole entry): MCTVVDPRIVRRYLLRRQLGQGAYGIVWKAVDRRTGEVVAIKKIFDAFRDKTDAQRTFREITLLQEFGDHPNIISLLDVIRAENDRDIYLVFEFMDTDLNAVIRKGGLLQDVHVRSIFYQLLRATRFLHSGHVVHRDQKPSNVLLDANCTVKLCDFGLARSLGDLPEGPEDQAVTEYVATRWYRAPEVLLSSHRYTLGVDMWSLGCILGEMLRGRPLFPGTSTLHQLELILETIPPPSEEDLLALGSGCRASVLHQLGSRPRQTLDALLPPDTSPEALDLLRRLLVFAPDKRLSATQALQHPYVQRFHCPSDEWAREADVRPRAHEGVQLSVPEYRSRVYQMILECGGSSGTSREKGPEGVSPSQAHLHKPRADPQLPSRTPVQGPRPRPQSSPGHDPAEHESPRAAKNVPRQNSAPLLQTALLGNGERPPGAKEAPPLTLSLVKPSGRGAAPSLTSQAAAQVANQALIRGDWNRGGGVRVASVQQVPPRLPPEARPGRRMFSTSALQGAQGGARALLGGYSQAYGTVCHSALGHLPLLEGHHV
Sequence of EGFR (P00533 25-1210): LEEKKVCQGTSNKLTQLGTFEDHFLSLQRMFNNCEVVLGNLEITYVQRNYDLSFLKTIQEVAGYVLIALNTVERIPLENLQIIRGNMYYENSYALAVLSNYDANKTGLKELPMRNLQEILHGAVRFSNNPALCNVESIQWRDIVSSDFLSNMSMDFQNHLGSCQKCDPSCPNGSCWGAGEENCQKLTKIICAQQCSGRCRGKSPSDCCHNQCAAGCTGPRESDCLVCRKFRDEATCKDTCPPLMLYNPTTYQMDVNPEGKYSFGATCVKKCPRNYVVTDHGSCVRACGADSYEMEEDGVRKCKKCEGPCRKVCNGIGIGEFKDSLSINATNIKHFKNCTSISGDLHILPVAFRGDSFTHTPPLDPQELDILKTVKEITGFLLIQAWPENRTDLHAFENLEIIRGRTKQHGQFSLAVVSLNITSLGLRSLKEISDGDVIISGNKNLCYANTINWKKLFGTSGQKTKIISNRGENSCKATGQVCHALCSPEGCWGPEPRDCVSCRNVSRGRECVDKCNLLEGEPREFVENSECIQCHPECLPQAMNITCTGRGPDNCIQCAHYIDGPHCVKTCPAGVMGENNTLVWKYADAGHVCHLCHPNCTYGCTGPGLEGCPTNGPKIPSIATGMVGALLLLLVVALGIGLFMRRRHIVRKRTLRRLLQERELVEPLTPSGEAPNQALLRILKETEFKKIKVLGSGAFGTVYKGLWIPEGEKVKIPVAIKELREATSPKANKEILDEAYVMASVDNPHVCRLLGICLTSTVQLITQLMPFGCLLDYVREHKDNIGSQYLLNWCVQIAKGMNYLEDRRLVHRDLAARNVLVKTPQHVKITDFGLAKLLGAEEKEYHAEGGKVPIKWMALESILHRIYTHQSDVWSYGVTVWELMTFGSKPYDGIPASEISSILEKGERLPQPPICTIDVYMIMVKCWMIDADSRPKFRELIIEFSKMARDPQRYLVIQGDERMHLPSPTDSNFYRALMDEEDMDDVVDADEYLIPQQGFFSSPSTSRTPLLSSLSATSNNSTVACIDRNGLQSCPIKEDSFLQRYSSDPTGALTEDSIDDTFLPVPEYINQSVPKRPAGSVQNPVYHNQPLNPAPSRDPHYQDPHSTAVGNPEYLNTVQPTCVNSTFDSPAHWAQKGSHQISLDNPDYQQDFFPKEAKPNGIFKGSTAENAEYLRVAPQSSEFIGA
Sequence of TNIK (Q9UKE5 whole entry): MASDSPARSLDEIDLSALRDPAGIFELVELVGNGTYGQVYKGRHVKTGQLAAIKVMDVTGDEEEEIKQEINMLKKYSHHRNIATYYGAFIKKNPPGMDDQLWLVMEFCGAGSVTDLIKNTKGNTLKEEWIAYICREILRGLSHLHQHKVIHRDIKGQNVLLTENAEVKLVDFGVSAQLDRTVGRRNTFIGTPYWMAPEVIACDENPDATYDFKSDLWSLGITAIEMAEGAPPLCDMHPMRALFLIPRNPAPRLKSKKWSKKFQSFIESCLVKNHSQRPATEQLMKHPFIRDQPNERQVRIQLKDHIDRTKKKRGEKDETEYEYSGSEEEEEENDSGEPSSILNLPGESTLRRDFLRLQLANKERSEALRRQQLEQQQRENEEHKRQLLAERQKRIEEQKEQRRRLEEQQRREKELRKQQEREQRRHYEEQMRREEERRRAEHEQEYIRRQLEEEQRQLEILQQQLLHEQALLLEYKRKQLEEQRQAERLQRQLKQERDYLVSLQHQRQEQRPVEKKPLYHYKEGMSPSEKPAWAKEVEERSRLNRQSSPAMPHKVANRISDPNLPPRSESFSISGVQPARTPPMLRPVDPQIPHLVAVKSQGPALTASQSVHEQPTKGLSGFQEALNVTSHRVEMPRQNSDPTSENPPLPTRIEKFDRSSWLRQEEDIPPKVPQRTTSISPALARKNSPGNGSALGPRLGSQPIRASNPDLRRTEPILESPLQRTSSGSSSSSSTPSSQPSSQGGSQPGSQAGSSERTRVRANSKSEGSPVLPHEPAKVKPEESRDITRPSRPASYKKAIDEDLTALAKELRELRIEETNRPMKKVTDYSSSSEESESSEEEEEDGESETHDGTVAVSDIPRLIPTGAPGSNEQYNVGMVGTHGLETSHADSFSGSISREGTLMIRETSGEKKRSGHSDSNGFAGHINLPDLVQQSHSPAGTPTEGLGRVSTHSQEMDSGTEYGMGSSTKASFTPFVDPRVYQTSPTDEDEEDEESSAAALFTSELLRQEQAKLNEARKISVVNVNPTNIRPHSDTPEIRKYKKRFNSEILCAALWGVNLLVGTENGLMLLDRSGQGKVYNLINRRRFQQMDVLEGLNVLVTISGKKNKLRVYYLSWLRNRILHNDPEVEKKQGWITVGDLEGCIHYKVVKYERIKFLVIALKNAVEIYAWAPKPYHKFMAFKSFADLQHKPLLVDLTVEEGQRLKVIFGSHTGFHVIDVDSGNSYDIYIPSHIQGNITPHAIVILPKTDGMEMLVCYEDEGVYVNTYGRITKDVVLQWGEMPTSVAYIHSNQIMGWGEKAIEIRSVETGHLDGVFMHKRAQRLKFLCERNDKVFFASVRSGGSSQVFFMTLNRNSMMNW
Sequence of ACVR1 (Q04771 21-509): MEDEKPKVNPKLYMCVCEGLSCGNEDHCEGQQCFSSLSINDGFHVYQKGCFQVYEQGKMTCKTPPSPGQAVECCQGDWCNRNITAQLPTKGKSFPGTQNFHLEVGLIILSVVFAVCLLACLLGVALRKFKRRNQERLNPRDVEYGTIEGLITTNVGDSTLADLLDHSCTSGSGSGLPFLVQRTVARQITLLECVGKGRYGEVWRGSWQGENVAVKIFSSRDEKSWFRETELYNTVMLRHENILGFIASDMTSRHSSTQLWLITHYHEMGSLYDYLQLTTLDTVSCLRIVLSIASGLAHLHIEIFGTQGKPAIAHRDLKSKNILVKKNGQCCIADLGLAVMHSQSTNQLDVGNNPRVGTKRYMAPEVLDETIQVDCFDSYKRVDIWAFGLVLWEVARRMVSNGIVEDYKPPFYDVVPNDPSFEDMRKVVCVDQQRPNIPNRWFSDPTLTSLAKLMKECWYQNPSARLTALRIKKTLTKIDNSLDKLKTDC

CN1C(=O)[C@@H](N2CCc3c(nn(Cc4ccccc4)c3C(N)=O)C2=O)COc2cc(Cl)ccc21 [Compound 10, (S)-2-benzyl-6-(8-chloro-5-methyl-4-oxo-2,3,4,5-tetrahydrobenzo[b][1,4]oxazepin-3-yl)-7-oxo-4,5,6,7-tetrahydro-2H-pyrazolo[3,4-c]pyridine-3-carboxamide]
remaining binding at 1 µM (GRK3): 71% | remaining binding at 1 µM (EGFR; 1000 nM): 100% | remaining binding at 0.1 µM (EGFR; compound concentration 100 nM, Entrez EGFR): 96% | remaining binding at 1 µM (DRAK1): 91% | remaining binding at 0.1 µM (SIK2): 71% | remaining binding at 1 µM (CSNK1G3; 1000 nM): 100% | remaining binding at 0.1 µM (CSNK1G3; compound concentration 100 nM, Entrez CSNK1G3): 98% | remaining binding at 1 µM (CAMK1; 1000 nM): 100% | remaining binding at 0.1 µM (CAMK1; compound concentration 100 nM, Entrez CAMK1): 90% | remaining binding at 1 µM (TNK1): 77% | remaining binding at 1 µM (GRK4): 75% | remaining binding at 1 µM (RIOK1): 85% | remaining binding at 1 µM (CDK8): 92% | remaining binding at 0.1 µM (PRKCD): 83% | remaining binding at 0.1 µM (WNK1): 92% | remaining binding at 0.1 µM (TGFBR2): 100% | remaining binding at 1 µM (TIE1): 94% | remaining binding at 1 µM (ERK8; 1000 nM): 100% | remaining binding at 0.1 µM (ERK8; compound concentration 100 nM, Entrez MAPK15): 82% | remaining binding at 1 µM (AAK1): 83% | remaining binding at 1 µM (ACVR1): 91% | remaining binding at 1 µM (RIOK3): 77% | remaining binding at 1 µM (ITK): 89% | remaining binding at 1 µM (TYRO3): 97% | remaining binding at 1 µM (ULK3): 93% | remaining binding at 1 µM (PIM3): 65% | remaining binding at 1 µM (FGFR4): 84% | remaining binding at 1 µM (WEE2): 82% | remaining binding at 1 µM (TNIK): 96% | remaining binding at 1 µM (JNK3): 95% | remaining binding at 1 µM (MKK7; 1000 nM): 99% | remaining binding at 0.1 µM (MKK7; compound concentration 100 nM, Entrez MAP2K7): 91% | remaining binding at 1 µM (MUSK): 92% | remaining binding at 0.1 µM [1]: 100% | remaining binding at 1 µM (AURKC): 90% | remaining binding at 1 µM (BUB1): 78% | remaining binding at 1 µM (MINK): 95% | remaining binding at 1 µM (NEK9): 92% | remaining binding at 1 µM (MAPKAPK2): 64% | remaining binding at 1 µM (GSK3A): 98% | remaining binding at 1 µM (EPHB2): 81% | remaining binding at 1 µM (NEK5): 96% | remaining binding at 1 µM (CAMK2D): 89%
